According to patent publication US12161117B2, “Agrochemical combinations” (UPL LTD, priority 2018, dated 2024):

Legend:
[1] = system: Fruit and shoot borer; assay: Trial of the combination Chlorantraniliprole+Novaluron+Bifenthrin on Fruit and shoot borer in paddy; assay type: in vivo; settings: solo
Method: Trials were conducted to test the efficacy of the combination of Chlorantraniliprole+Novaluron+Bifenthrin on Fruit and shoot borer in paddy: […]

[2] = system: white ears; assay: Trial of the combination Chlorantraniliprole+Novaluron+Bifenthrin on white ears in paddy; assay type: in vivo; settings: solo
Method: Trials were conducted to test the efficacy of the combination of Chlorantraniliprole+Novaluron+Bifenthrin on white ears in paddy: […]

O=C(NC(=O)c1c(F)cccc1F)Nc1ccc(OC(F)(F)C(F)OC(F)(F)F)c(Cl)c1 (stereo not drawn) [Novaluron]
Percent control Fruit and shoot borer ([1]; 3 DAA, dose 100 gm ai/ha): 64.3%
Percent control Fruit and shoot borer ([1]; 7 DAA, dose 100 gm ai/ha): 75%
Percent control Fruit and shoot borer ([1]; 10 DAA, dose 100 gm ai/ha): 68.3%
Percent control Fruit and shoot borer ([1]; 14 DAA, dose 100 gm ai/ha): 64.3%
Percent control Fruit and shoot borer ([2]; 3 DAA, dose 100 gm ai/ha): 5%
Percent control Fruit and shoot borer ([2]; 7 DAA, dose 100 gm ai/ha): 6%
Percent control Fruit and shoot borer ([2]; 10 DAA, dose 100 gm ai/ha): 5.9%
Percent control Fruit and shoot borer ([2]; 14 DAA, dose 100 gm ai/ha): 4.9%

Cc1c(COC(=O)[C@@H]2[C@H](/C=C(\Cl)C(F)(F)F)C2(C)C)cccc1-c1ccccc1 (racemic) [Bifenthrin]
Percent control Fruit and shoot borer ([1]; 3 DAA, dose 60 gm ai/ha): 54.3%
Percent control Fruit and shoot borer ([1]; 7 DAA, dose 60 gm ai/ha): 71%
Percent control Fruit and shoot borer ([1]; 10 DAA, dose 60 gm ai/ha): 64.3%
Percent control Fruit and shoot borer ([1]; 14 DAA, dose 60 gm ai/ha): 58.3%
Percent control Fruit and shoot borer ([2]; 3 DAA, dose 60 gm ai/ha): 80%
Percent control Fruit and shoot borer ([2]; 7 DAA, dose 60 gm ai/ha): 79%
Percent control Fruit and shoot borer ([2]; 10 DAA, dose 60 gm ai/ha): 55%
Percent control Fruit and shoot borer ([2]; 14 DAA, dose 60 gm ai/ha): 38%

CNC(=O)c1cc(Cl)cc(C)c1NC(=O)c1cc(Br)nn1-c1ncccc1Cl [Chlorantraniliprole, 3-bromo-4′-chloro-1-(3-chloro-2-pyridyl)-2′-methyl-6′-(methylcarbamoyl)pyrazole-5-carboxanilide]
Percent control Fruit and shoot borer ([1]; 3 DAA, dose 30 gm ai/ha): 79.3%
Percent control Fruit and shoot borer ([1]; 7 DAA, dose 30 gm ai/ha): 90%
Percent control Fruit and shoot borer ([1]; 10 DAA, dose 30 gm ai/ha): 88.3%
Percent control Fruit and shoot borer ([1]; 14 DAA, dose 30 gm ai/ha): 78.4%
Percent control Fruit and shoot borer ([2]; 3 DAA, dose 30 gm ai/ha): 5%
Percent control Fruit and shoot borer ([2]; 7 DAA, dose 30 gm ai/ha): 6%
Percent control Fruit and shoot borer ([2]; 10 DAA, dose 30 gm ai/ha): 5.9%
Percent control Fruit and shoot borer ([2]; 14 DAA, dose 30 gm ai/ha): 4.9%
